# Results: patent US10350206B2, “Benzyl substituted indazoles as BUB1 inhibitors” (Bayer Pharma Aktiengesellschaft, priority 2014, dated 2019)
# Experiments:
# [1] = test system: HeLa human cervical tumor cells; experiment: Proliferation Assay (HeLa+Paclitaxel); format: cell-based; details: 3 nM paclitaxel, test substance 92 hours; read-out: Biological Assay 3: Proliferation Assay (HeLa + Paclitaxel) IC50
# [2] = test system: HeLa human cervical tumor cells; experiment: Proliferation assay (HeLa cell line); format: cell-based; details: 96 h, 4 days incubation, crystal violet, read-out: Biological Assay 2: Proliferation assay (HeLa cell line) median IC50
# [3] = test system: Bub1 kinase (histone 2A phosphorylation); experiment: H2A Formation-Assay (cell-based mechanistic assay, co-treatment with Nocodazole); details: 16 h, Nocodazole 1 μg/ml together with test compound for 16 h; read-out: Biological Assay 4.1: H2A Formation IC50
# [4] = test system: Bub1 kinase (pre-induced phospho-histone 2A); experiment: H2A Abrogation-Assay (cell-based mechanistic assay, pre-treatment with Nocodazole); details: Nocodazole 1 μg/ml 16 h, then test compound 1 h; read-out: Biological Assay 4.2: H2A Abrogation IC50
Structure (SMILES),IC50 [1] [nM],IC50 [2] [nM],IC50 [3] [nM],IC50 [4] [nM]
"COc1cnccc1Nc1nc(-c2nn(Cc3c(F)cc(OCCO)cc3F)c3ccccc23)ncc1OC [Example 2-1-3, 2-{3,5-difluoro-4-[(3-{5-methoxy-4-[(3-methoxypyridin-4-yl)amino]pyrimidin-2-yl}-1H-indazol-1-yl)methyl]phenoxy}ethanol]",63,1700,43,29
"COc1cnc(-c2nn(Cc3c(F)cc(OCCO)cc3F)c3ccccc23)nc1Nc1ccnc(C)c1 [Example 2-1-2, 2-{3,5-difluoro-4-[(3-{5-methoxy-4-[(2-methylpyridin-4-yl)amino]pyrimidin-2-yl}-1H-indazol-1-yl)methyl]phenoxy}ethanol]",350,1300,8.7,11
